Assay results from PubChem BioAssay (NCI).
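The compound was tested at five concentrations on cells cultured in 96-well plates, with a 48-hour exposure period. TGI denotes the concentration required for complete inhibition of growth.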

Tests used:
Assay in all cases: NCI anticancer screen, dose series, 48 h
T-47D breast = test system: T-47D breast
HT29 colon = test system: HT29 colon
HOP-62 NSCLC = test system: HOP-62 NSCLC
TK-10 renal = test system: TK-10 renal
SNB-19 CNS = test system: SNB-19 CNS
MDA-N = test system: MDA-N
NCI-H460 lung = test system: NCI-H460 lung
IGROV1 ovarian = test system: IGROV1 ovarian
MDA-MB-231 breast = test system: MDA-MB-231 breast
SN12C renal = test system: SN12C renal
ACHN renal = test system: ACHN renal
CAKI-1 renal = test system: CAKI-1 renal
SF-268 CNS = test system: SF-268 CNS
RPMI-8226 leukemia = test system: RPMI-8226 leukemia
OVCAR-3 ovarian = test system: OVCAR-3 ovarian
786-0 renal = test system: 786-0 renal
M14 melanoma = test system: M14 melanoma
SF-539 CNS = test system: SF-539 CNS
A549 NSCLC = test system: A549 NSCLC
UO-31 renal = test system: UO-31 renal

Question: How did the TGI (T-47D breast) turn out when CC1=C(/C=C/C(C)=C/C=C/C(C)=C/C(=O)OC2CC(n3cc(F)c(=O)[nH]c3=O)OC2CO)C(C)(C)CCC1 (stereo not given) was run?
Answer: Its TGI is 21.2 µM.

Question: What about the TGI (HT29 colon) of the same molecule?
Answer: Its TGI is 21.5 µM.

Question: What about the TGI (HOP-62 NSCLC) of the same molecule?
Answer: Its TGI is 13.7 µM.

Question: What about the TGI (TK-10 renal) of the same molecule?
Answer: Its TGI is 25.8 µM.

Question: What about the TGI (SNB-19 CNS) of the same molecule?
Answer: Its TGI is 23.6 µM.

Question: What about the TGI (MDA-N) of the same molecule?
Answer: Its TGI is 23.2 µM.

Question: And the TGI (NCI-H460 lung)?
Answer: Its TGI is 15.3 µM.

Question: And the TGI (IGROV1 ovarian)?
Answer: The TGI was 24.6 µM.

Question: And the TGI (MDA-MB-231 breast)?
Answer: The TGI was 29.4 µM.

Question: What about the TGI (SN12C renal) of the same molecule?
Answer: Its TGI is 32 µM.

Question: And the TGI (ACHN renal)?
Answer: The TGI was 11.6 µM.

Question: And the TGI (CAKI-1 renal)?
Answer: Its TGI is 16.9 µM.

Question: What about the TGI (SF-268 CNS) of the same molecule?
Answer: The TGI was 19.5 µM.

Question: What about the TGI (RPMI-8226 leukemia) of the same molecule?
Answer: The TGI was 15.8 µM.

Question: What about the TGI (OVCAR-3 ovarian) of the same molecule?
Answer: The TGI was 22.5 µM.

Question: What about the TGI (786-0 renal) of the same molecule?
Answer: The TGI was 16.7 µM.

Question: What about the TGI (M14 melanoma) of the same molecule?
Answer: Its TGI is 17.4 µM.

Question: And the TGI (SF-539 CNS)?
Answer: The TGI was 0.54 µM.

Question: What about the TGI (A549 NSCLC) of the same molecule?
Answer: Its TGI is 17.6 µM.

Question: What about the TGI (UO-31 renal) of the same molecule?
Answer: Its TGI is 14.9 µM.

Question: What does the source list for O=C1NC(N/N=C\C(O)C(O)C(O)C(O)CO)=N/C1=C/c1ccc(Cl)cc1 (stereo not given)?
Answer: TGI (T-47D breast): > 100 µM; TGI (HT29 colon): > 100 µM; TGI (HOP-62 NSCLC): > 100 µM; TGI (TK-10 renal): > 100 µM; TGI (SNB-19 CNS): > 100 µM; TGI (MDA-N): > 100 µM; TGI (NCI-H460 lung): > 100 µM; TGI (IGROV1 ovarian): > 100 µM; TGI (MDA-MB-231 breast): > 100 µM; TGI (SN12C renal): > 100 µM; TGI (ACHN renal): > 100 µM; TGI (CAKI-1 renal): > 100 µM; TGI (SF-268 CNS): > 100 µM; TGI (RPMI-8226 leukemia): > 100 µM; TGI (OVCAR-3 ovarian): > 100 µM; TGI (786-0 renal): > 100 µM; TGI (M14 melanoma): > 100 µM; TGI (SF-539 CNS): > 100 µM; TGI (A549 NSCLC): > 100 µM; TGI (UO-31 renal): > 100 µM

Question: Which TGI (T-47D breast) does the source give for CC1CN=C(N(C(=O)Nc2ccc(Cl)c(Cl)c2)c2ccccc2)S1 (stereo not given) here?
Answer: Its TGI is over 100 µM.

Question: And the TGI (HT29 colon)?
Answer: Its TGI is over 100 µM.

Question: And the TGI (HOP-62 NSCLC)?
Answer: Its TGI is over 100 µM.

Question: What about the TGI (TK-10 renal) of the same molecule?
Answer: Its TGI is over 100 µM.

Question: What about the TGI (SNB-19 CNS) of the same molecule?
Answer: The TGI was over 100 µM.

Question: What about the TGI (MDA-N) of the same molecule?
Answer: Its TGI is over 100 µM.

Question: What about the TGI (NCI-H460 lung) of the same molecule?
Answer: Its TGI is over 100 µM.

Question: And the TGI (IGROV1 ovarian)?
Answer: Its TGI is over 100 µM.

Question: And the TGI (MDA-MB-231 breast)?
Answer: Its TGI is over 100 µM.

Question: What about the TGI (SN12C renal) of the same molecule?
Answer: The TGI was over 100 µM.

Question: And the TGI (ACHN renal)?
Answer: The TGI was over 100 µM.

Question: What about the TGI (CAKI-1 renal) of the same molecule?
Answer: The TGI was over 100 µM.

Question: What about the TGI (SF-268 CNS) of the same molecule?
Answer: Its TGI is over 100 µM.

Question: And the TGI (RPMI-8226 leukemia)?
Answer: Its TGI is over 100 µM.

Question: What about the TGI (OVCAR-3 ovarian) of the same molecule?
Answer: The TGI was over 100 µM.

Question: And the TGI (786-0 renal)?
Answer: Its TGI is over 100 µM.

Question: And the TGI (M14 melanoma)?
Answer: The TGI was over 100 µM.

Question: What about the TGI (SF-539 CNS) of the same molecule?
Answer: The TGI was over 100 µM.

Question: And the TGI (A549 NSCLC)?
Answer: Its TGI is over 100 µM.

Question: And the TGI (UO-31 renal)?
Answer: The TGI was over 100 µM.

Question: What does the source list for CC1C=CN(N(C)C)C2=C1C(=O)c1cnccc1C2=O (stereo not given)?
Answer: TGI (T-47D breast): 4.33 µM; TGI (HT29 colon): 2.27 µM; TGI (HOP-62 NSCLC): 1.42 µM; TGI (TK-10 renal): 1.44 µM; TGI (SNB-19 CNS): 2.31 µM; TGI (MDA-N): 0.278 µM; TGI (NCI-H460 lung): 0.389 µM; TGI (IGROV1 ovarian): 1.07 µM; TGI (MDA-MB-231 breast): 2.12 µM; TGI (SN12C renal): 0.558 µM; TGI (ACHN renal): 1.06 µM; TGI (CAKI-1 renal): 0.597 µM; TGI (SF-268 CNS): 5.21 µM; TGI (RPMI-8226 leukemia): 2.65 µM; TGI (OVCAR-3 ovarian): 2.37 µM; TGI (786-0 renal): 0.538 µM; TGI (M14 melanoma): 1.62 µM; TGI (SF-539 CNS): 1.26 µM; TGI (A549 NSCLC): 2.11 µM; TGI (UO-31 renal): 0.39 µM

Question: For COc1ccc2c(C(=O)c3cn(CCN4CCOCC4)c4ccccc34)cccc2c1, which TGI (T-47D breast) is on record?
Answer: The TGI was over 100 µM.

Question: And the TGI (HT29 colon)?
Answer: The TGI was over 100 µM.

Question: What about the TGI (HOP-62 NSCLC) of the same molecule?
Answer: Its TGI is over 100 µM.

Question: And the TGI (TK-10 renal)?
Answer: The TGI was over 100 µM.

Question: And the TGI (SNB-19 CNS)?
Answer: Its TGI is over 100 µM.

Question: What about the TGI (MDA-N) of the same molecule?
Answer: Its TGI is over 100 µM.

Question: What about the TGI (NCI-H460 lung) of the same molecule?
Answer: The TGI was over 100 µM.

Question: What about the TGI (IGROV1 ovarian) of the same molecule?
Answer: The TGI was over 100 µM.

Question: What about the TGI (MDA-MB-231 breast) of the same molecule?
Answer: Its TGI is over 100 µM.

Question: And the TGI (SN12C renal)?
Answer: The TGI was over 100 µM.

Question: What about the TGI (ACHN renal) of the same molecule?
Answer: The TGI was over 100 µM.

Question: And the TGI (CAKI-1 renal)?
Answer: Its TGI is over 100 µM.

Question: And the TGI (SF-268 CNS)?
Answer: The TGI was over 100 µM.

Question: And the TGI (RPMI-8226 leukemia)?
Answer: Its TGI is over 100 µM.

Question: And the TGI (OVCAR-3 ovarian)?
Answer: The TGI was over 25.5 µM.

Question: What about the TGI (786-0 renal) of the same molecule?
Answer: Its TGI is over 100 µM.

Question: What about the TGI (M14 melanoma) of the same molecule?
Answer: Its TGI is over 87.5 µM.

Question: What about the TGI (SF-539 CNS) of the same molecule?
Answer: Its TGI is over 100 µM.

Question: What about the TGI (A549 NSCLC) of the same molecule?
Answer: Its TGI is over 100 µM.

Question: And the TGI (UO-31 renal)?
Answer: Its TGI is over 100 µM.
